From patent US20030068615A1, “Polypeptides that bind HIV gp120 and related nucleic acids, antibodies, compositions, and methods of use” (priority 1999, published 2003) come the findings set out here.

Values joined by “and” are separate entries in the source; they are usually repeats but may differ in a detail not shown here. Equal entries are not always repeated. Where two headings read alike, the source gives them in different places.

The test deals with HIV-1LAI envelope gp120 (Human immunodeficiency virus type 1 group M subtype B, UniProt P03377). The class given is binding. The settings on record: for number of radioactive decays (counts) counted: human CD4 21-mer scan, empty control 2075; for Counts per 20′ Average-background: CCR5 18-mer scan, radiolabeled HIV-1LAI gp120; for Relative % of Control: mean of two syntheses and binding experiments ± average deviation, wild-type = 100%.

[1] abbreviates: Panel E, 9-mers and 12-mers of CD4, empty control 571.
Setting [2] is: Panel F, sequential alanine replacements of CD4 polypeptides, duplicate series, empty control 569.
Where [3] appears, read: Panel C, 15-mers and 18-mers of CD4, empty control 556.
Where [4] appears, read: STRL33 18-mer scan, background subtracted, first of two count columns.
[5] abbreviates: STRL33 18-mer scan, background subtracted, second of two count columns.
[6] abbreviates: Panel B, 15-mers and 18-mers of CD4, empty control 575.
The mark [7] stands for this setting: CXCR4 18-mer scan, background subtracted, empty control 0.
The mark [8] stands for this setting: CXCR4 18-mer scan, empty control 412.
The mark [9] stands for this setting: Panel A, 21-mers of CD4, empty control 515 and 617.
Where [10] appears, read: Panel D, 9-mers and 12-mers of CD4, empty control […].

As for “RRQAERMSQLKRLLSEKKTCQ [human CD4, printed 42E-446]”, the “number of radioactive decays (counts) counted” value (“number of radioactive decays” below) is given as 1607 counts.
For KASSIVYKKEGE, the “COUNTS of radiolabeled gp120 retained” value under setting [1] came to 559 counts.
For “GQVLLESNIKVLPTWSTPVQP [human CD4 376-396]”, the “number of radioactive decays” value is listed as 2089 counts.
AEVQLLVFGLTANSD: the “COUNTS of radiolabeled gp120 retained” value under setting [2] is 16220 counts and 14590 counts.
For FTVEKLTGSGELWWQ, the “COUNTS of radiolabeled gp120 retained” value under setting [3] is 625 counts.
As to EKKTCQCPHRFQKTCSPI, the “number of radioactive decays” value is recorded as 2006 counts.
Regarding PLAFTVEKLTGSGELWWQ, the “COUNTS of radiolabeled gp120 retained” value under setting [3] is recorded as 650 counts.
As for LPGIIFTRSQKEGLHYTC, under “background subtracted”, the “Counts per 20′ Average-background” value is 118 counts per 20′.
For LGMTHCCINPIIYAFVGE [CCR5 segment 285-], for the setting “background subtracted”, the “Counts per 20′ Average-background” value is recorded as 282 counts per 20′.
On to “FLVNLPLADLVFVCTLPF [STRL33 segment 69-86]”, for which the “radioactive counts recorded in twenty minutes” value (from here on “radioactive counts recorded”) worked out at 70.5 counts under setting [4] and 51.5 counts under setting [5].
In the case of KEGEQVEFSFPLAFTVEK, the “COUNTS of radiolabeled gp120 retained” value under setting [3] amounted to 3117 counts.
Same read-out and setting: the figure for LQNQKKVEFKIDIVV is 644 counts.
Take “ACLNPVLYAFVSLKFRKN [STRL33 segment 281-298]”: the “radioactive counts recorded” value is reported as 4173.5 counts under setting [4] and 4515.5 counts under setting [5].
Turning to TANSDTHLLQGQSLT, the “COUNTS of radiolabeled gp120 retained” value under setting [6] came to 513 counts.
With “ILAFFACWLPYYIGISID [CXCR4 segment 245-262]”, the “radioactive counts recorded” value under setting [7] is on record as 184 counts and the “radioactive counts recorded” value under setting [8] came out at 596 counts.
As to LLRCRNEKKRHRAVRLIF, the “Counts per 20′ Average-background” value (background subtracted) worked out at 102 counts per 20′.
With “AEGISIYTSDNYTEEMGS [CXCR4 (1-18) variant M1A]”, the “Relative % of Control” value (CXCR4 (1-18) alanine variants) turned out to be 118 ± 18%.
Consider KVEFKIDIVVLAFQKASSIVY, for which the “COUNTS of radiolabeled gp120 retained” value under setting [9] was 635 counts.
As to VDRFIVVVKATKAYNQQA, the “radioactive counts recorded” value under setting [4] was 103.5 counts and the “radioactive counts recorded” value under setting [5] was 53.5 counts.
For “LKFRKNFWKLVKDIGCLP [STRL33 segment 293-310]”, the “radioactive counts recorded” value runs as follows: under setting [4], 920.5 counts; under setting [5], 957.5 counts.
“GKLHQEVNLVVMRATQLQKNL [human CD4 306-326]”: the “number of radioactive decays” value amounted to 1776 counts.
Take “HEWVFGQVMCKSLLGIYT [STRL33 segment 93-110]”: the “radioactive counts recorded” value is 3391.5 counts under setting [4] and 3466.5 counts under setting [5].
NRLDQAMQVTETLGMTHC [CCR5 segment 273-]: the “Counts per 20′ Average-background” value (background subtracted) is 10 counts per 20′.
MDYQVSSAIYDINYYTSE: the “Relative % of Control” value (CCR5 (1-18) alanine variants) was found to be 157 ± 2%.
As for LTVPFWAHYAAAQWDFGN [CCR5 segment 81-98], the “Counts per 20′ Average-background” value (background subtracted) came out at 306 counts per 20′.
Same read-out and setting: the figure for ILKTLLRCRNEKKRHRAV is 19 counts per 20′.
The same measure, in the same setting: next, LLNLAISDLFFLLTVPFW [CCR5 segment 69-86]: 144 counts per 20′.
Regarding NFPLIIKNLKIEDSDTYI, under setting [6], the “COUNTS of radiolabeled gp120 retained” value was determined as 627 counts.
Regarding LFFLLTVPFWAHYAAAQW [CCR5 segment 77-94], the “Counts per 20′ Average-background” value (background subtracted) is listed as 173 counts per 20′.
On to “LTDVFLVNLPLADLVFVC [STRL33 segment 65-82]”, for which the “radioactive counts recorded” value is, setting by setting: under setting [4], 233.5 counts; under setting [5], 336.5 counts.
On to TCTVLQNQKKVEFKI, for which the “COUNTS of radiolabeled gp120 retained” value under setting [3] is on record as 510 counts.
Consider TELLQGASLTLTLES, for which the “COUNTS of radiolabeled gp120 retained” value under setting [2] came out at 4238 counts.
On to LILINCKRLKSMTDIYLL [CCR5 segment 53-70], for which, where the note is “background subtracted”, the “Counts per 20′ Average-background” value was found to be 2 counts per 20′.
For KKEGEQVEFSFPLAFTVE, under setting [3], the “COUNTS of radiolabeled gp120 retained” value was 4683 counts.
On to EEVQLLVFGLTANSDTHL, for which the “COUNTS of radiolabeled gp120 retained” value under setting [6] came to 783 counts.
With TVEKLTGSGELWWQA, under setting [3], the “COUNTS of radiolabeled gp120 retained” value came out at 550 counts.
With QKASSIVYKKEGEQVEFSFPL, under setting [9], the “COUNTS of radiolabeled gp120 retained” value stood at 24959 counts.
For GEAVEFSFPLAFTVE, under “Panel G, alanine replacements and serial truncations (Z) of CD4 polypeptides, empty control 580”, the “COUNTS of radiolabeled gp120 retained” value was 19756 counts and 17500 counts.
Regarding “KAVWVLNPEAGMWQCLLSDSG [human CD4 356-376]”, the “number of radioactive decays” value was determined as 3133 counts.
As to NPIIYAFVGEKFRNYLLV [CCR5 segment 293-], the “Counts per 20′ Average-background” value (background subtracted) is given as 162 counts per 20′.
For the sequence IIKNLKIED, the “COUNTS of radiolabeled gp120 retained” value under setting [10] was 658 counts.
Take EDQKEEVQLLVFGLT: the “COUNTS of radiolabeled gp120 retained” value under setting [6] is listed as 3633 counts.
As for SFPLAFTVEKLTGSGELWWQA, the “COUNTS of radiolabeled gp120 retained” value under setting [9] was found to be 2284 counts.
Turning to SIVYKKEGEQVEFSFPLA, the “COUNTS of radiolabeled gp120 retained” value under setting [3] worked out at 771 counts.
As to EEVQLLVFGLTA, under setting [10], the “COUNTS of radiolabeled gp120 retained” value was 3261 counts.
Take QKEEVQLLVFGLTAN: the “COUNTS of radiolabeled gp120 retained” value under setting [6] is listed as 3770 counts.
As to VQLLVFGLTANSDTH, under setting [6], the “COUNTS of radiolabeled gp120 retained” value amounted to 1006 counts.
Regarding THLLQAQSLTLTLES, the “COUNTS of radiolabeled gp120 retained” value under setting [2] was 8471 counts and 6393 counts.
As for “VCTLPFWAYAGIHEWVFG [STRL33 segment 81-98]”, the “radioactive counts recorded” value reads like this: under setting [4], 1819.5 counts; under setting [5], 1754.5 counts.
With LKIEDSDTY, the “COUNTS of radiolabeled gp120 retained” value under setting [10] came to 492 counts.
With KKEGEQVEFSFPLAFTVEKLT, the “COUNTS of radiolabeled gp120 retained” value under setting [9] amounted to 1847 counts.
IVILSCYCIIISKLSHSK: the “radioactive counts recorded” value is, setting by setting: under setting [7], 277 counts; under setting [8], 689 counts.
As to IDIVVLAFQKASSIV, the “COUNTS of radiolabeled gp120 retained” value under setting [3] is listed as 865 counts.
In the case of FPLAFTVEKLTGSGELWWQAE, the “COUNTS of radiolabeled gp120 retained” value under setting [9] is 6276 counts.
In the case of AFTVEKLTGSGELWW, under setting [3], the “COUNTS of radiolabeled gp120 retained” value is recorded as 586 counts.
For KIDIVVLAF, the “COUNTS of radiolabeled gp120 retained” value under setting [1] stood at 665 counts.
As to FQHIMVGLILPGIVILSC, the “radioactive counts recorded” value is, setting by setting: under setting [7], 170 counts; under setting [8], 582 counts.
Consider KIDIVVLAFQKASSI, for which, under setting [3], the “COUNTS of radiolabeled gp120 retained” value came out at 956 counts.
Regarding MEGISIYASDNYTEEDGS, the “Relative % of Control” value (CXCR4 (1-18) alanine variants) was found to be 97 ± 10%.
For GNFPLIIKNLKIEDS, under setting [6], the “COUNTS of radiolabeled gp120 retained” value amounted to 624 counts.
For the sequence SDTYICEVEDQKEEVQLL, the “COUNTS of radiolabeled gp120 retained” value under setting [6] was 870 counts.
For the sequence VIIKTLLHAGGFQKERSL, the “radioactive counts recorded” value worked out at 961.5 counts under setting [4] and 682.5 counts under setting [5].
Regarding FPLIIKNLK, the “COUNTS of radiolabeled gp120 retained” value under setting [10] worked out at 601 counts.
Still for that read-out and setting: the figure for GNFPLIIKNLKI is 547 counts; for CEVEDQKEEVQL it is 561 counts.
For the sequence EGEQVEFSF, the “COUNTS of radiolabeled gp120 retained” value under setting [1] is 735 counts.
On to “AYNQQAKRMTWGKVTSLL [STRL33 segment 137-154]”, for which the “radioactive counts recorded” value under setting [4] turned out to be 55.5 counts and the “radioactive counts recorded” value under setting [5] is 4.5 counts.
